Results: patent US8134015B2, “Compound inhibiting in vivo phosphorous transport and medicine containing the same” (Kyowa Hakko Kirin Co., Ltd., priority 2003, dated 2012)

biological target: T1, rat NaPi-2b (Rattus norvegicus, UniProt Q9JJ09); experiment: Sodium-dependent phosphate uptake of Xenopus oocytes which expressed NaPi-2b (32P); format: cell-based; conditions: Xenopus oocytes expressing rat NaPi-2b, 32P radioactive phosphorus; read-out: IC50 (phosphate uptake inhibitory activity)
T1 construct: expressed in transfected cells; host or cells: Xenopus oocytes injected with cRNA
T1 sequence (Q9JJ09 1-695): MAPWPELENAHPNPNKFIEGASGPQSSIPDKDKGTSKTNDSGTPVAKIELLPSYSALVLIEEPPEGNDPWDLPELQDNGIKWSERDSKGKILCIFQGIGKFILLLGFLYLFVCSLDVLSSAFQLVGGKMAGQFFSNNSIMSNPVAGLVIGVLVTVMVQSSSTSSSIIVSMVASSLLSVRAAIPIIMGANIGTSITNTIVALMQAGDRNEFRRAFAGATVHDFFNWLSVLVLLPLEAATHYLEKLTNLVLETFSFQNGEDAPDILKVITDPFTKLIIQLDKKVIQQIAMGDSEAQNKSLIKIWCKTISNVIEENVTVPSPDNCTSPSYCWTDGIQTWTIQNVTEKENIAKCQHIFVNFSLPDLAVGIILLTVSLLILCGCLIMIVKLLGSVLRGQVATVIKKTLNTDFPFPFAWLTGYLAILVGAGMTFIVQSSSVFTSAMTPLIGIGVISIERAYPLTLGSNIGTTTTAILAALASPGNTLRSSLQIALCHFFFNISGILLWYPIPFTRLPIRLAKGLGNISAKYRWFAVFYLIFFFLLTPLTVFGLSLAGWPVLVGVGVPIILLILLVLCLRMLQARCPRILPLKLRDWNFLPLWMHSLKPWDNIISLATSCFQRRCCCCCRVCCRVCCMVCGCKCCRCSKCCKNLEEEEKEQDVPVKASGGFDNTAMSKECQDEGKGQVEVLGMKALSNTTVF
In short: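 Inhibition at 300 μM and 100 μM was read off one inhibition curve of 32P phosphate uptake. Uptake was measured in Xenopus oocytes cultured 2 days after injection of cRNA for cloned rat NaPi-2b.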

Row | SMILES | IC50 [nM]
1 | O=C(Nc1ccccc1C(=O)N/N=C/c1ccc(Cl)c(C(F)(F)F)c1)c1ccccn1 [Compound 508, Pyridin-2-carboxylic acid [2-(4-chloro-3-trifluoromethyl-benzylidene-hydrazinocarbonyl)-phenyl]-amide] | 480
2 | O=C(N/N=C/c1cccc(F)c1)c1cc(Br)ccc1NC(=O)C1CCCCC1 [Compound 509, Cyclohexanecarboxylic acid [4-bromo-2-(3-fluoro-benzylidene-hydrazinocarbonyl)-phenyl]-amide] | 13600
3 | O=C(Nc1ccc(Br)cc1C(=O)N/N=C/c1cccc(F)c1)c1ccno1 [Compound 510, Isoxazole-5-carboxylic acid [4-bromo-2-(3-fluoro-benzylidene-hydrazinocarbonyl)-phenyl]-amide] | 1480
4 | Cc1cccc(/C=N/NC(=O)c2cc(Br)ccc2NC(=O)c2ccno2)c1 [Compound 511, Isoxazole-5-carboxylic acid [4-bromo-2-(3-methyl-benzylidene-hydrazinocarbonyl)-phenyl]-amide] | 2160
5 | Cc1ccc(/C=N/NC(=O)c2cc(Br)ccc2NC(=O)c2ccno2)cc1C [Compound 512, Isoxazole-5-carboxylic acid [4-bromo-2-(3,4-dimethyl-benzylidene-hydrazinocarbonyl)-phenyl]-amide] | 28300
6 | O=C(Nc1ccc(Br)cc1C(=O)N/N=C/c1ccc(Cl)c(C(F)(F)F)c1)c1ccno1 [Compound 513, Isoxazole-5-carboxylic acid [4-bromo-2-(4-chloro-3-trifluoromethyl-benzylidene-hydrazinocarbonyl)-phenyl]-amide] | 16000
7 | Cc1cc(C(=O)Nc2ccccc2C(=O)N/N=C/c2cccc(F)c2)c(C)o1 [Compound 514, 2,5-Dimethyl-furan-3-carboxylic acid [2-(3-fluoro-benzylidene-hydrazinocarbonyl)-phenyl]-amide] | 2150
8 | Cc1cc(C(=O)Nc2ccccc2C(=O)N/N=C/c2ccc(F)cc2)c(C)o1 [Compound 515, 2,5-Dimethyl-furan-3-carboxylic acid [2-(4-fluoro-benzylidene-hydrazinocarbonyl)-phenyl]-amide] | 1900
9 | Cc1cccc(/C=N/NC(=O)c2ccccc2NC(=O)c2cc(C)oc2C)c1 [Compound 516, 2,5-Dimethyl-furan-3-carboxylic acid [2-(3-methyl-benzylidene-hydrazinocarbonyl)-phenyl]-amide] | 2130
10 | COc1ccc(C(=O)Nc2scc(C)c2C(=O)N/N=C/c2cccc(F)c2)cc1OC [Compound 517, N-[3-(3-Fluoro-benzylidene-hydrazinocarbonyl)-4-methyl-thiophen-2-yl]-3,4-dimethoxy-benzamide] | 1710
11 | COc1ccc(C(=O)Nc2scc(C)c2C(=O)N/N=C/c2cccc(C)c2)cc1OC [Compound 518, 3,4-Dimethoxy-N-[4-methyl-3-(3-methyl-benzylidene-hydrazinocarbonyl)-thiophen-2-yl]-benzamide] | 1520
12 | COc1ccc(C(=O)Nc2scc(C)c2C(=O)N/N=C/c2ccc(C)cc2)cc1OC [Compound 519, 3,4-Dimethoxy-N-[4-methyl-3-(4-methyl-benzylidene-hydrazinocarbonyl)-thiophen-2-yl]-benzamide] | 1720
13 | COc1ccc(C(=O)Nc2scc(C)c2C(=O)N/N=C/c2ccc(C)c(C)c2)cc1OC [Compound 521, N-[3-(3,4-Dimethyl-benzylidene-hydrazinocarbonyl)-4-methyl-thiophen-2-yl]-3,4-dimethoxy-benzamide] | 1240
14 | COc1ccc(C(=O)Nc2scc(C)c2C(=O)N/N=C/c2ccc(Cl)c(C(F)(F)F)c2)cc1OC [Compound 522, N-[3-(4-Chloro-3-trifluoromethyl-benzylidene-hydrazinocarbonyl)-4-methyl-thiophen-2-yl]-3,4-dimethoxy-benzamide] | 1090

same assay, conditions: phosphate uptake, oocytes expressing rat NaPi-2b; 300 μM, determined from inhibition curve

Row | SMILES | inhibition at 300 µM [%]
15 | Cc1ccc(/C=N/NC(=O)c2scc(C)c2NC(=O)c2cccc(CSc3nc[nH]n3)c2)cc1C [Compound 523, N-[2-(3,4-Dimethyl-benzylidene-hydrazinocarbonyl)-4-methyl-thiophen-3-yl]-3-(1H-[1,2,4]triazol-3-ylsulfanylmethyl)-benzamide] | 50.1
16 | Cc1csc(C(=O)N/N=C/c2cccc(F)c2)c1NC(=O)c1cccc(CSc2nc[nH]n2)c1 [Compound 524, N-[2-(3-Fluoro-benzylidene-hydrazinocarbonyl)-4-methyl-thiophen-3-yl]-3-(1H-[1,2,4]triazol-3-ylsulfanylmethyl)-benzamide] | 42.8
17 | Cc1ccc(/C=N/NC(=O)c2scc(C)c2NC(=O)c2cccc(CSCCCO)c2)cc1C [Compound 525, N-[2-(3,4-Dimethyl-benzylidene-hydrazinocarbonyl)-4-methyl-thiophen-3-yl]-3-(3-hydroxy-propylsulfanylmethyl)-benzamide] | 38.9
18 | Cc1ccc(/C=N/NC(=O)c2scc(C)c2NC(=O)c2cccc(CSCCCO)c2)cc1 [Compound 526, 3-(3-Hydroxy-propylsulfanylmethyl)-N-[4-methyl-2-(4-methyl-benzylidene-hydrazinocarbonyl)-thiophen-3-yl]-benzamide] | 40.2
19 | Cc1csc(C(=O)N/N=C/c2cccc(F)c2)c1NC(=O)c1cccc(CSCCCO)c1 [Compound 527, N-[2-(3-Fluoro-benzylidene-hydrazinocarbonyl)-4-methyl-thiophen-3-yl]-3-(3-hydroxy-propylsulfanylmethyl)-benzamide] | 40.9
20 | CCN(CC)CCN(C)Cc1cccc(C(=O)Nc2c(C)csc2C(=O)N/N=C/c2ccc(F)cc2)c1 [Compound 528, 3-{[(2-Diethylamino-ethyl)-methyl-amino]-methyl}-N-[2-(4-fluoro-benzylidene-hydrazinocarbonyl)-4-methyl-thiophen-3-yl]-benzamide] | 58.4
21 | CCN(CC)CCN(C)Cc1cccc(C(=O)Nc2c(C)csc2C(=O)N/N=C/c2cccc(F)c2)c1 [Compound 529, 3-{[(2-Diethylamino-ethyl)-methyl-amino]-methyl}-N-[2-(3-fluoro-benzylidene-hydrazinocarbonyl)-4-methyl-thiophen-3-yl]-benzamide] | 81
22 | CCN(CC)CCN(C)Cc1cccc(C(=O)Nc2c(C)csc2C(=O)N/N=C/c2ccc(OC)cc2)c1 [Compound 530, 3-{[(2-Diethylamino-ethyl)-methyl-amino]-methyl}-N-[2-(4-methoxy-benzylidene-hydrazinocarbonyl)-4-methyl-thiophen-3-yl]-benzamide] | 38.2
23 | COc1ccc(/C=N/NC(=O)c2scc(C)c2NC(=O)c2cccc(CN3CCC(N4CCCCC4)CC3)c2)cc1 [Compound 531, 3-[1,4′]Bipiperidinyl-1′-ylmethyl-N-[2-(4-methoxy-benzylidene-hydrazinocarbonyl)-4-methyl-thiophen-3-yl]-benzamide] | 35.7
24 | Cc1ccc(/C=N/NC(=O)c2scc(C)c2NC(=O)c2cccc(CN3CCN(CCO)CC3)c2)cc1C [Compound 532, N-[2-(3,4-Dimethyl-benzylidene-hydrazinocarbonyl)-4-methyl-thiophen-3-yl]-3-[4-(2-hydroxy-ethyl)-piperazin-1-ylmethyl]-benzamide] | 76
25 | Cc1ccc(/C=N/NC(=O)c2scc(C)c2NC(=O)c2cccc(CN3CCN(CCO)CC3)c2)cc1 [Compound 533, 3-[4-(2-Hydroxy-ethyl)-piperazin-1-ylmethyl]-N-[4-methyl-2-(4-methyl-benzylidene-hydrazinocarbonyl)-thiophen-3-yl]-benzamide] | 36.9
26 | Cc1csc(C(=O)N/N=C/c2ccc(F)cc2)c1NC(=O)c1cccc(CN2CCN(CCO)CC2)c1 [Compound 534, N-[2-(4-Fluoro-benzylidene-hydrazinocarbonyl)-4-methyl-thiophen-3-yl]-3-[4-(2-hydroxy-ethyl)-piperazin-1-ylmethyl]-benzamide] | 43.8
27 | Cc1csc(C(=O)N/N=C/c2cccc(F)c2)c1NC(=O)c1cccc(CN2CCN(CCO)CC2)c1 [Compound 535, N-[2-(3-Fluoro-benzylidene-hydrazinocarbonyl)-4-methyl-thiophen-3-yl]-3-[4-(2-hydroxy-ethyl)-piperazin-1-ylmethyl]-benzamide] | 53
28 | CCN(CC)CCNCc1cccc(C(=O)Nc2c(C)csc2C(=O)N/N=C/c2ccc(C)c(C)c2)c1 [Compound 536, 3-[(2-Diethylamino-ethylamino)-methyl]-N-[2-(3,4-dimethyl-benzylidene-hydrazinocarbonyl)-4-methyl-thiophen-3-yl]-benzamide] | 88.2
29 | CCN(CC)CCNCc1cccc(C(=O)Nc2c(C)csc2C(=O)N/N=C/c2ccc(C)cc2)c1 [Compound 537, 3-[(2-Diethylamino-ethylamino)-methyl]-N-[4-methyl-2-(4-methyl-benzylidene-hydrazinocarbonyl)-thiophen-3-yl]-benzamide] | 82
